Experimental data published in patent US20240365781A1, “SYNERGISTICALLY EFFECTIVE HERBICIDE COMPOSITION COMPRISING PELARGONIC ACID AND FLAZASULFURON” (Belchim Crop Protection NV, priority 2017, published 2024).

How the values were obtained:
Test in all cases: post-emergence field trial under rows of vines, 150-200 L water/ha (Examples 6-9)
Type in all cases: in vivo
Stellaria media = conditions: flazasulfuron 40 g/ha
Text: (§1) The expected activity of a given combination of two or three herbicides can be calculated as follows according to a calculation method by Colby (cf. COLBY, S. R.: “Calculating synergistic and antagonistic responses of herbicide combinations”, • Weeds 15, pages 20-22, 1967): • If X=% damage by herbicide (A) at an application rate of m g/ha, • Y=% damage by herbicide (B) at an application rate of n g/ha, • E=the expected damage by herbicides (A) and (B) at application rates of m and n […] and, • then for a combination:
(§2) Individual compositions comprising pelargonic acid or flazasulfuron are compared with a herbicide composition according to the invention comprising pelargonic acid and flazasulfuron.
(§3) Herbicidal activity was determined by performing a post-emergence test. […] The corresponding mixture was in the form of a spray solution. Besides, spray solutions of individual compositions comprising pelargonic acid or flazasulfuron were used.
(§4) The spray solution was applied on plants of unwanted vegetation present on fields where perennial crops were grown.
(§5) After 5 to 88 days after application of the spray solution, the degree of damage to the unwanted vegetation is rated in % of plants of unwanted vegetation that were killed. Tests were performed on test fields (field trials).

Chenopodium album = conditions: flazasulfuron 40 g/ha
Text: as §1, §2, §3, §4, §5

[1] = tested on: Digitaria sanguinalis and Setaria pumila; conditions: flazasulfuron 40 g/ha
Text: as §1, §2, §3, §4, §5

Amaranthus retroflexus = conditions: flazasulfuron 40 g/ha
Text: as §1, §2, §3, §4, §5

Erigeron sumatrensis = conditions: flazasulfuron 40 g/ha
Text: as §1, §2, §3, §4, §5

Geranium molle = conditions: 15 d, flazasulfuron 40 g/ha
Text: as §1, §2, §3, §4, §5

Epilobium tetragonum = conditions: flazasulfuron 40 g/ha
Text: as §1, §2, §3, §4, §5

Oxalis latifolia = conditions: flazasulfuron 40 g/ha
Text: as §1, §2, §3, §4, §5

Digitaria sanguinalis = conditions: flazasulfuron 40 g/ha
Text: as §1, §2, §3, §4, §5

Veronica persicae = conditions: flazasulfuron 40 g/ha
Text: as §1, §2, §3, §4, §5

Sonchus oleracea = conditions: flazasulfuron 40 g/ha
Text: as §1, §2, §3, §4, §5

[2] = 7 d, pelargonic acid 10880 g/ha
[3] = 14 d, pelargonic acid 5440 g/ha
[4] = 14 d, pelargonic acid 6800 g/ha
[5] = 14 d, pelargonic acid 8160 g/ha
[6] = 14 d, pelargonic acid 10880 g/ha
[7] = 28 d, pelargonic acid 5440 g/ha
[8] = 28 d, pelargonic acid 6800 g/ha
[9] = 28 d, pelargonic acid 8160 g/ha
[10] = 28 d, pelargonic acid 10880 g/ha
[11] = 31 d, pelargonic acid 5440 g/ha
[12] = 31 d, pelargonic acid 8160 g/ha
[13] = 31 d, pelargonic acid 10880 g/ha
[14] = 58 d, pelargonic acid 5440 g/ha
[15] = 58 d, pelargonic acid 6800 g/ha
[16] = 58 d, pelargonic acid 8160 g/ha
[17] = 58 d, pelargonic acid 10880 g/ha
[18] = 27 d, pelargonic acid 6800 g/ha
[19] = 27 d, pelargonic acid 8160 g/ha
[20] = 27 d, pelargonic acid 10880 g/ha
[21] = 56 d, pelargonic acid 6800 g/ha
[22] = 56 d, pelargonic acid 8160 g/ha
[23] = 56 d, pelargonic acid 10880 g/ha
[24] = 27 d, pelargonic acid 5440 g/ha
[25] = 56 d, pelargonic acid 5440 g/ha

**Q.** What does the source list for `CCCCCCCCC(=O)O` [Pelargonic acid, nonanoic acid]?
**A.** herbicidal effect (Stellaria media; 7 d, pelargonic acid 8160 g/ha): 49%; herbicidal effect (Stellaria media; [2]): 54%; herbicidal effect (Stellaria media; [3]): 69%; herbicidal effect (Stellaria media; [4]): 75%; herbicidal effect (Stellaria media; [5]): 66%; herbicidal effect (Stellaria media; [6]): 80%; herbicidal effect (Stellaria media; [7]): 80%; herbicidal effect (Stellaria media; [8]): 84%; herbicidal effect (Stellaria media; [9]): 86%; herbicidal effect (Stellaria media; [10]): 93%; herbicidal effect (Chenopodium album; 7 d, pelargonic acid 5440 g/ha): 60%; herbicidal effect (Chenopodium album; [2]): 91%; herbicidal effect (Chenopodium album; [3]): 60%; herbicidal effect (Chenopodium album; [6]): 91%; herbicidal effect (Chenopodium album; [11]): 45%; herbicidal effect (Chenopodium album; [12]): 74%; herbicidal effect (Chenopodium album; [13]): 78%; herbicidal effect (Chenopodium album; [14]): 23%; herbicidal effect (Chenopodium album; [15]): 35%; herbicidal effect (Chenopodium album; [16]): 65%; herbicidal effect (Chenopodium album; [17]): 65%; herbicidal effect ([1]; 7 d, pelargonic acid 5440 g/ha): 97%; herbicidal effect ([1]; 7 d, pelargonic acid 6800 g/ha): 19%; herbicidal effect ([1]; 7 d, pelargonic acid 8160 g/ha): 68%; herbicidal effect [1, 2]: 70%; herbicidal effect [1, 3]: 25%; herbicidal effect [1, 5]: 19%; herbicidal effect [1, 6]: 38%; herbicidal effect [1, 7]: 0%; herbicidal effect [1, 8]: 0%; herbicidal effect [1, 9]: 0%; herbicidal effect [1, 10]: 31%; herbicidal effect ([1]; 65 d, pelargonic acid 5440 g/ha): 0%; herbicidal effect ([1]; 65 d, pelargonic acid 8160 g/ha): 0%; herbicidal effect ([1]; 65 d, pelargonic acid 10880 g/ha): 0%; herbicidal effect (Amaranthus retroflexus; 7 d, pelargonic acid 5440 g/ha): 53%; herbicidal effect (Amaranthus retroflexus; [2]): 86%; herbicidal effect (Amaranthus retroflexus; [3]): 53%; herbicidal effect (Amaranthus retroflexus; [6]): 86%; herbicidal effect (Amaranthus retroflexus; [11]): 48%; herbicidal effect (Amaranthus retroflexus; 31 d, pelargonic acid 6800 g/ha): 50%; herbicidal effect (Amaranthus retroflexus; [12]): 70%; herbicidal effect (Amaranthus retroflexus; [13]): 75%; herbicidal effect (Amaranthus retroflexus; [14]): 18%; herbicidal effect (Amaranthus retroflexus; [15]): 30%; herbicidal effect (Amaranthus retroflexus; [16]): 48%; herbicidal effect (Amaranthus retroflexus; [17]): 63%; herbicidal effect (Erigeron sumatrensis; 5 d, pelargonic acid 5440 g/ha): 55%; herbicidal effect (Erigeron sumatrensis; 5 d, pelargonic acid 8160 g/ha): 83%; herbicidal effect (Erigeron sumatrensis; 15 d, pelargonic acid 5440 g/ha): 35%; herbicidal effect (Erigeron sumatrensis; 15 d, pelargonic acid 6800 g/ha): 50%; herbicidal effect (Erigeron sumatrensis; 15 d, pelargonic acid 8160 g/ha): 61%; herbicidal effect (Geranium molle; pelargonic acid 5440 g/ha): 0%; herbicidal effect (Geranium molle; pelargonic acid 6800 g/ha): 3%; herbicidal effect (Geranium molle; pelargonic acid 8160 g/ha): 0%; herbicidal effect (Geranium molle; pelargonic acid 10880 g/ha): 0%; herbicidal effect (Epilobium tetragonum; 7 d, pelargonic acid 5440 g/ha): 49%; herbicidal effect (Epilobium tetragonum; 7 d, pelargonic acid 8160 g/ha): 56%; herbicidal effect (Epilobium tetragonum; [2]): 73%; herbicidal effect (Epilobium tetragonum; [4]): 0%; herbicidal effect (Epilobium tetragonum; [5]): 8%; herbicidal effect (Epilobium tetragonum; [6]): 13%; herbicidal effect (Epilobium tetragonum; [18]): 0%; herbicidal effect (Epilobium tetragonum; [19]): 0%; herbicidal effect (Epilobium tetragonum; [20]): 0%; herbicidal effect (Epilobium tetragonum; [21]): 0%; herbicidal effect (Epilobium tetragonum; [22]): 0%; herbicidal effect (Epilobium tetragonum; [23]): 0%; herbicidal effect (Oxalis latifolia; 7 d, pelargonic acid 6800 g/ha): 54%; herbicidal effect (Oxalis latifolia; 7 d, pelargonic acid 8160 g/ha): 58%; herbicidal effect (Oxalis latifolia; [2]): 73%; herbicidal effect (Oxalis latifolia; [3]): 76%; herbicidal effect (Oxalis latifolia; [4]): 85%; herbicidal effect (Oxalis latifolia; [5]): 89%; herbicidal effect (Oxalis latifolia; [6]): 96%; herbicidal effect (Oxalis latifolia; [8]): 68%; herbicidal effect (Digitaria sanguinalis; 7 d, pelargonic acid 5440 g/ha): 35%; herbicidal effect (Digitaria sanguinalis; 7 d, pelargonic acid 6800 g/ha): 63%; herbicidal effect (Digitaria sanguinalis; 7 d, pelargonic acid 8160 g/ha): 48%; herbicidal effect (Digitaria sanguinalis; [2]): 54%; herbicidal effect (Digitaria sanguinalis; [3]): 10%; herbicidal effect (Digitaria sanguinalis; [4]): 58%; herbicidal effect (Digitaria sanguinalis; [5]): 43%; herbicidal effect (Digitaria sanguinalis; [6]): 49%; herbicidal effect (Digitaria sanguinalis; [24]): 10%; herbicidal effect (Digitaria sanguinalis; [18]): 20%; herbicidal effect (Digitaria sanguinalis; [19]): 26%; herbicidal effect (Digitaria sanguinalis; [20]): 5%; herbicidal effect (Digitaria sanguinalis; [25]): 0%; herbicidal effect (Digitaria sanguinalis; [21]): 8%; herbicidal effect (Digitaria sanguinalis; [22]): 0%; herbicidal effect (Digitaria sanguinalis; [23]): 0%; herbicidal effect (Veronica persicae; 7 d, pelargonic acid 5440 g/ha): 43%; herbicidal effect (Veronica persicae; 7 d, pelargonic acid 6800 g/ha): 55%; herbicidal effect (Veronica persicae; 7 d, pelargonic acid 8160 g/ha): 50%; herbicidal effect (Veronica persicae; [2]): 45%; herbicidal effect (Veronica persicae; [3]): 10%; herbicidal effect (Veronica persicae; [4]): 45%; herbicidal effect (Veronica persicae; [5]): 30%; herbicidal effect (Veronica persicae; [6]): 30%; herbicidal effect (Veronica persicae; [24]): 0%; herbicidal effect (Veronica persicae; [18]): 20%; herbicidal effect (Veronica persicae; [19]): 0%; herbicidal effect (Veronica persicae; [20]): 0%; herbicidal effect (Veronica persicae; [25]): 0%; herbicidal effect (Veronica persicae; [23]): 0%; herbicidal effect (Sonchus oleracea; [3]): 25%; herbicidal effect (Sonchus oleracea; [4]): 45%; herbicidal effect (Sonchus oleracea; [5]): 25%; herbicidal effect (Sonchus oleracea; [6]): 28%; herbicidal effect (Sonchus oleracea; [24]): 0%; herbicidal effect (Sonchus oleracea; [18]): 13%; herbicidal effect (Sonchus oleracea; [19]): 0%; herbicidal effect (Sonchus oleracea; [20]): 0%; herbicidal effect (Sonchus oleracea; [25]): 0%; herbicidal effect (Sonchus oleracea; [21]): 0%; herbicidal effect (Sonchus oleracea; [22]): 0%; herbicidal effect (Sonchus oleracea; [23]): 0%
